Here are results for 2 compounds from patent US20070020241A1, “Use of photosensitisation” (priority 2003, published 2007).

The subject of experiment [1] is Streptococcus pyogenes ATCC 12202. The experiment can be described thus: Lethal photosensitization of Streptococcus pyogenes using SnCe6 and laser light. It counts as cell-based. The procedure:
(§1) streptococcus pyogenes ATCC 12202 was grown in Brain Heart Infusion broth at 37° C. in an atmosphere consisting of 5% CO2 in air. The cells were harvested by centrifugation and re-suspended in phosphate buffered saline (PBS) and diluted to 1×10^7 cfu/ml in PBS. 20 μl samples of the diluted bacterial suspension were then placed into wells of a 96-well plate, together with a magnetic stirrer bar. 100 μl of different concentrations (1-50 μg/ml) of the SnCe6 in PBS was added to the bacterial suspensions. Controls were performed with 100 μl PBS added to the bacteria and either irradiated (L+S−) or kept in the dark (L−S−). The experiment was carried out in duplicate.
After incubation, the contents of some of the wells were exposed to light from the 35 mW Helium/Neon laser emitting light with a wavelength of 633nm for 10 min, with stirring, corresponding to an energy density of 42 J/cm^2. Aluminium foil was placed in the surrounding wells to allow any escaping laser light to be reflected back into the target well. Control wells were not irradiated with laser light.
After exposure to the laser light, 100 μl samples were immediately taken from each well and serially diluted, from 10^−1 to 10^−5, in 1 ml TSY in 1.5 ml Eppendorf tubes. Duplicate 50 μl aliquots of each dilution were then spread out on half a CBA plate. The plates were placed in a 37° C. incubator for up to 48 h and the resulting colonies were counted to determine the number of surviving organisms.

The test system of experiment [2] is Propionibacterium acnes ATCC 29399. The experiment can be described thus: Lethal photosensitization of Propionibacterium acnes using SnCe6 and laser light. It counts as cell-based. The procedure:
as §1, with “Propionibacterium acnes ATCC 29399” for “streptococcus pyogenes ATCC 12202”, “acnes ATCC 29399 was grown” for “pyogenes ATCC 12202 was grown”, “grown in pre-reduced Brain Heart” for “grown in Brain Heart”, “in an anaerobic atmosphere. The cells” for “in an atmosphere consisting of 5% CO2 in air. The cells”, “diluted to 1×10^8 cfu/ml in” for “diluted to 1×10^7 cfu/ml in”
After incubation, the contents of some of the wells were exposed to light from the 35 mW Helium/Neon laser emitting light with a wavelength of 633 nm for 10 min, with stirring, corresponding to an energy density of 42 J/cm^2. Aluminium foil was placed in the surrounding wells to allow any escaping laser light to be reflected back into the target well. Control wells were not irradiated with laser light.
After exposure to the laser light, 100 μl samples were immediately taken from each well and serially diluted, from 10^−1 to 10^−5, in 1 ml of pre-reduced TSY in 1.5 ml Eppendorf tubes. Duplicate 50 μl aliquots of each dilution were then spread out on half a CBA plate. The plates were incubated anaerobically at 37° C. and the resulting colonies were counted to determine the number of surviving organisms.

In experiment [3] the test system is S. aureus 8325-4. Put plainly: Lethal photosensitisation using phage 75-SnCe6 conjugate and a white light source. It counts as cell-based, Staphylococcus aureus. The note with it: for % kill (L+S+): vs PBS in the dark. From the text:
(§2) Bacterial strains: S. aureus 8325-4 • EMRSA-16
(§3) Light source: KL200 (Schott). This is a 20-watt halogen cold light source. The light guide attached to it is a flexible optic fibre bundle which is directed onto a 96 well plate at a distance of 5 cm. A square of 4-wells is placed at the centre of the light source.
(§4) Approx light intensity=44,000 lux or 470 μW/nm
(§5) Phage 75 was conjugated to SnCe6 as described above. Phages were used at a concentration of 1×10^7 pfu/ml.
(§6) Overnight cultures of S. aureus grown in nutrient broth were centrifuged, resuspended in PBS and adjusted to an OD of 0.05 at 600 nm (approximately 4×10^7 cfu/ml)
(§7) 50 μl of bacterial culture was aliquoted into a 96-well plate and 50 μl of the one of the following solutions added to the wells: • 1) 3.5 μg/ml SnCe6-phage 75 (final concentration 1.75 μg/ml, 1×10^6 pfu/well) in PBS • 2) 1.75 μg/ml SnCe6-phage 75 (final concentration 0.875 μg/ml, 5×10^5 pfu/well) in PBS • 3) 3.5 μg/ml SnCe6 in PBS (final concentration 1.75 μg/ml) • 4) 1.75 μg/ml SnCe6 in PBS (final concentration 0.875 μg/ml) • 5) PBS • 6) Phage 75 at a concentration of 5×10^5 or 1×10^6 pfu/well in PBS
(§8) Wells were either exposed to white light (4 wells at a time) or wrapped in tin foil and stored in the dark.
(§9) After various exposure times an aliquot was taken from each well, serially diluted and spread onto Columbia blood agar. Agar plates were incubated overnight at 37° C. and counted the next day.

In another experiment the test system is EMRSA-16. The description is as above. Type of experiment: cell-based, Staphylococcus aureus. The note with it: for % kill (L+S+): vs PBS in the dark.
From the text: as §2, §3, §4, §5, §6, §7, §8, §9

For experiment [4], the system named is S. aureus 8325-4. Put plainly: Targeted photodynamic therapy using Φ11-SnCe6 conjugates and a laser light source. It counts as cell-based, Staphylococcus aureus. The note with it: 1.15 μg ml^−1 SnCe6, 633 nm 35 mW HeNe laser 5 minutes (21 J/cm^2). The procedure: Bacteriophage Φ11 was propagated and precipitated as described above for phage 75, except that S aureus strain 8325-4 was used as the propagating strain. Tin chlorin e6 (SnCe6) was conjugated onto Staphylococcus phage Φ11 using the method described above, achieving bound concentrations of 2.3 and 3.5 μg ml^−1 SnCe6 with the phage Φ11 at 4.7×10^7 pfu.ml^−1. […] The final concentration of conjugated SnCe6 was 1.15 μg ml^−1.
The light source was a 35 mW Helium/Neon laser and irradiation (when used) was for 5 minutes in the case of FIGS. 3 and 4, and for 10 minutes in the case of FIG. 5.

Another experiment deals with 16 strains of EMRSA. The note with it: red light, higher light doses; cited from earlier work.
Where [5] appears, read: 633 nm laser 10 min, 42 J/cm^2, 1-50 μg/ml.
[6] abbreviates: dark, increasing concentrations (1-50 μg/ml).
The mark [7] stands for this setting: photosensitiser 50 μg/ml, 633 nm laser 10 min, 42 J/cm^2.
Where [8] appears, read: white light 10 min, final photosensitiser 0.875 μg/ml.
The mark [9] stands for this setting: white light 10 min, final photosensitiser 1.75 μg/ml.
The mark [10] stands for this setting: white light 20 min, final photosensitiser 1.75 μg/ml.
The mark [11] stands for this setting: without exposure to white light.

Take `C=CC1=C(C)C2=CC3=NC(=C(CC(=O)[O-])C4=NC(=C(C)C4=C([O-])[O-])C=c4[n-]c(c(C)c4CC)=CC1=N2)C(CCC(=O)[O-])C3C.[H+].[Sn+4]` (stereo not shown) [SnCe6, tin (IV) chlorin e6]: the “effect on the viable count, irradiation” value in experiment [1] (setting [5]) and in experiment [2] (setting [5]) was “concentration-dependent decrease in the viable count” throughout. For the same compound, the “effect on the viable count, incubation in the dark” value in experiment [1] (setting [6]) and in experiment [2] (setting [6]) was “no significant effect” each time. The “% kill of the organism” value in experiment [1] (setting [7]) is 99.9997%; in experiment [2] (setting [7]), 100%. Besides, the “% kill (L+S+)” value with S. aureus 8325-4 [3] (setting [8]) came to 45.3%; with S. aureus 8325-4 [3] (setting [9]) it was 97.8%; in the experiment with S. aureus 8325-4 [3] (setting [10]), 97.9%; with EMRSA-16 (setting [8]), 0%; in the experiment on EMRSA-16 (setting [9]), 0%; in the experiment on EMRSA-16 (setting [10]), 99.78%. The “bacterial counts of controls vs unirradiated suspension without photosensitiser” value with S. aureus 8325-4 [3] (setting [11]) and in the experiment on EMRSA-16 (setting [11]) was “not significantly different” throughout. In addition, in the experiment with S. aureus 8325-4 [4], the “% kill (compared to control counts in phosphate buffered saline)” value is recorded as “did not achieve any kill”.

In the case of “aluminium disulphonated phthalocyanine [AlPcS2]”, the “% killing” value with 16 strains of EMRSA is listed as 100%.
